# Results: PubChem BioAssay AID1963446 (Molecular Pharmacology Branch, DTP, NCI, 2024)
# Tested on: 993429-296-R-J1-PDC complex spheroid growth, percent test/control
# Assay: Anticancer human tumor 993429-296-R-J1-PDC patient-derived uterine sarcoma cell line growth inhibition [Asc]
# Details: for IC50: curve of first compound; for viability, T/C: stronger effect = lower value
# Method in brief: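 Stromal components (HUVEC and hMSC) are co-assembled with the cancer cells into multicellular spheroids. Drugs are then added singly or paired, at concentrations falling by half-log increments from a clinically achievable maximum, capped at 10 microM without known Cmax.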
# [1] = second compound 0.03 µM, first compound 0.00316 µM
# [2] = second compound 0.03 µM, first compound 0.01 µM
# [3] = second compound 0.03 µM, first compound 0.0316 µM
# [4] = second compound 0.03 µM, first compound 0.1 µM
# [5] = second compound 0.0949 µM, first compound 0.00316 µM
# [6] = second compound 0.0949 µM, first compound 0.01 µM
# [7] = second compound 0.0949 µM, first compound 0.0316 µM
# [8] = second compound 0.0949 µM, first compound 0.1 µM
# [9] = second compound 0.3 µM, first compound 0.00316 µM
# [10] = second compound 0.3 µM, first compound 0.01 µM
# [11] = second compound 0.3 µM, first compound 0.0316 µM
# [12] = second compound 0.3 µM, first compound 0.1 µM
# [13] = second compound 0.949 µM, first compound 0.00316 µM
# [14] = second compound 0.949 µM, first compound 0.01 µM
# [15] = second compound 0.949 µM, first compound 0.0316 µM
# [16] = second compound 0.949 µM, first compound 0.1 µM
# [17] = second compound 3 µM, first compound 0.00316 µM
# [18] = second compound 3 µM, first compound 0.01 µM
# [19] = second compound 3 µM, first compound 0.0316 µM
# [20] = second compound 3 µM, first compound 0.1 µM
# 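Further: spheroids exposed to compounds for seven days.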
smiles,measurement,setting,value
COc1c(OCCCN2CCOCC2)ccc2c3n(c(=NC(=O)c4cnc(N)nc4)nc12)CCN3 + CCN1C(C(=O)NC23CCC(C(=O)O)(CC2)CC3)C(c2cccc(Cl)c2F)C2(C(=O)Nc3cc(Cl)ccc32)C12CCCCC2,IC50,second compound 0.03 µM,24.5 nM
same,IC50,second compound 0.0949 µM,26.1 nM
same,IC50,second compound 0.3 µM,23.5 nM
same,IC50,second compound 0.949 µM,29.1 nM
same,IC50,second compound 3 µM,21.8 nM
same,"viability, T/C",[1],94.7%
same,"viability, T/C",[2],84.8%
same,"viability, T/C",[3],40.2%
same,"viability, T/C",[4],6.36%
same,"viability, T/C","second compound 0.03 µM, first compound 0.316 µM",4.17%
same,"viability, T/C","second compound 0.03 µM, first compound 1 µM",1.31%
same,"viability, T/C",[5],82.9%
same,"viability, T/C",[6],86.2%
same,"viability, T/C",[7],43%
same,"viability, T/C",[8],7.8%
same,"viability, T/C","second compound 0.0949 µM, first compound 0.316 µM",3.21%
same,"viability, T/C","second compound 0.0949 µM, first compound 1 µM",1.48%
same,"viability, T/C",[9],96.6%
same,"viability, T/C",[10],73.5%
same,"viability, T/C",[11],44.7%
same,"viability, T/C",[12],8.77%
same,"viability, T/C","second compound 0.3 µM, first compound 0.316 µM",3.89%
same,"viability, T/C","second compound 0.3 µM, first compound 1 µM",1.15%
same,"viability, T/C",[13],78.4%
same,"viability, T/C",[14],89.8%
same,"viability, T/C",[15],47.4%
same,"viability, T/C",[16],7.2%
same,"viability, T/C","second compound 0.949 µM, first compound 0.316 µM",4.24%
same,"viability, T/C","second compound 0.949 µM, first compound 1 µM",1.63%
same,"viability, T/C",[17],81.4%
same,"viability, T/C",[18],70%
same,"viability, T/C",[19],41%
same,"viability, T/C",[20],7.7%
same,"viability, T/C","second compound 3 µM, first compound 0.316 µM",3.98%
same,"viability, T/C","second compound 3 µM, first compound 1 µM",1.49%
NC(=O)C(=Cn1cnc(-c2cc(C(F)(F)F)cc(C(F)(F)F)c2)n1)c1cncnc1 + CCN1C(C(=O)NC23CCC(C(=O)O)(CC2)CC3)C(c2cccc(Cl)c2F)C2(C(=O)Nc3cc(Cl)ccc32)C12CCCCC2,IC50,second compound 0.03 µM,18.6 nM
same,IC50,second compound 0.0949 µM,15.5 nM
same,IC50,second compound 0.3 µM,14 nM
same,IC50,second compound 0.949 µM,20.3 nM
same,IC50,second compound 3 µM,13.3 nM
same,"viability, T/C","second compound 0.03 µM, first compound 0.000949 µM",98%
same,"viability, T/C","second compound 0.03 µM, first compound 0.003 µM",97.9%
same,"viability, T/C","second compound 0.03 µM, first compound 0.00949 µM",71%
same,"viability, T/C","second compound 0.03 µM, first compound 0.03 µM",34%
same,"viability, T/C","second compound 0.03 µM, first compound 0.0949 µM",17.8%
same,"viability, T/C","second compound 0.03 µM, first compound 0.3 µM",9.36%
same,"viability, T/C","second compound 0.0949 µM, first compound 0.000949 µM",95.3%
same,"viability, T/C","second compound 0.0949 µM, first compound 0.003 µM",87%
same,"viability, T/C","second compound 0.0949 µM, first compound 0.00949 µM",63.4%
same,"viability, T/C","second compound 0.0949 µM, first compound 0.03 µM",31.9%
same,"viability, T/C","second compound 0.0949 µM, first compound 0.0949 µM",14.9%
same,"viability, T/C","second compound 0.0949 µM, first compound 0.3 µM",8.83%
same,"viability, T/C","second compound 0.3 µM, first compound 0.000949 µM",89.3%
same,"viability, T/C","second compound 0.3 µM, first compound 0.003 µM",85.6%
same,"viability, T/C","second compound 0.3 µM, first compound 0.00949 µM",55.4%
same,"viability, T/C","second compound 0.3 µM, first compound 0.03 µM",33.4%
same,"viability, T/C","second compound 0.3 µM, first compound 0.0949 µM",19.7%
same,"viability, T/C","second compound 0.3 µM, first compound 0.3 µM",9.08%
same,"viability, T/C","second compound 0.949 µM, first compound 0.000949 µM",83%
same,"viability, T/C","second compound 0.949 µM, first compound 0.003 µM",90%
same,"viability, T/C","second compound 0.949 µM, first compound 0.00949 µM",83.3%
same,"viability, T/C","second compound 0.949 µM, first compound 0.03 µM",33%
same,"viability, T/C","second compound 0.949 µM, first compound 0.0949 µM",14%
same,"viability, T/C","second compound 0.949 µM, first compound 0.3 µM",7.67%
same,"viability, T/C","second compound 3 µM, first compound 0.000949 µM",81.7%
same,"viability, T/C","second compound 3 µM, first compound 0.003 µM",87.5%
same,"viability, T/C","second compound 3 µM, first compound 0.00949 µM",55.4%
same,"viability, T/C","second compound 3 µM, first compound 0.03 µM",29.8%
same,"viability, T/C","second compound 3 µM, first compound 0.0949 µM",13%
same,"viability, T/C","second compound 3 µM, first compound 0.3 µM",8.21%
NC1CCC(NC2CC2c2ccccc2)CC1 (stereo not given) + CCN1C(C(=O)NC23CCC(C(=O)O)(CC2)CC3)C(c2cccc(Cl)c2F)C2(C(=O)Nc3cc(Cl)ccc32)C12CCCCC2,IC50,second compound 0.03 µM,> 100 nM
same,IC50,second compound 0.0949 µM,> 100 nM
same,IC50,second compound 0.3 µM,> 100 nM
same,IC50,second compound 0.949 µM,> 100 nM
same,IC50,second compound 3 µM,> 100 nM
same,"viability, T/C","second compound 0.03 µM, first compound 0.000316 µM",76.4%
same,"viability, T/C","second compound 0.03 µM, first compound 0.001 µM",75.4%
same,"viability, T/C",[1],80.2%
same,"viability, T/C",[2],77.8%
same,"viability, T/C",[3],81.4%
same,"viability, T/C",[4],91.8%
same,"viability, T/C","second compound 0.0949 µM, first compound 0.000316 µM",91.1%
same,"viability, T/C","second compound 0.0949 µM, first compound 0.001 µM",77.5%
same,"viability, T/C",[5],74.7%
same,"viability, T/C",[6],66.8%
same,"viability, T/C",[7],93%
same,"viability, T/C",[8],81.5%
same,"viability, T/C","second compound 0.3 µM, first compound 0.000316 µM",98.2%
same,"viability, T/C","second compound 0.3 µM, first compound 0.001 µM",74.7%
same,"viability, T/C",[9],69%
same,"viability, T/C",[10],80.2%
same,"viability, T/C",[11],69.3%
same,"viability, T/C",[12],83.8%
same,"viability, T/C","second compound 0.949 µM, first compound 0.000316 µM",72%
same,"viability, T/C","second compound 0.949 µM, first compound 0.001 µM",76.9%
same,"viability, T/C",[13],83.1%
same,"viability, T/C",[14],83.2%
same,"viability, T/C",[15],76.6%
same,"viability, T/C",[16],88.9%
same,"viability, T/C","second compound 3 µM, first compound 0.000316 µM",75.2%
same,"viability, T/C","second compound 3 µM, first compound 0.001 µM",85.6%
same,"viability, T/C",[17],79.7%
same,"viability, T/C",[18],74.1%
same,"viability, T/C",[19],70.3%
same,"viability, T/C",[20],71%
